In brackets after ≈: the same amount, converted by molar mass. Activity calls are given as the source filed them. The rule behind the calls is not given here.
Columns and labels:
Candida tropicalis [1] = test: Antifungal activity against Candida tropicalis ATCC 28707 assessed as reduction in fungal growth incubated for 48 hrs by broth microdilution method; format: functional
Pichia kudriavzevii [2] = test: Antifungal activity against Candida krusei ATCC 34135 assessed as reduction in fungal growth incubated for 48 hrs by broth microdilution method; format: functional
Candida albicans [3] = test: Antifungal activity against Candida albicans isolate 9 assessed as reduction in fungal growth incubated for 48 hrs by broth microdilution method; format: functional
Candida albicans [4] = test: Antifungal activity against Candida albicans isolate 8 assessed as reduction in fungal growth incubated for 48 hrs by broth microdilution method; format: functional
Candida albicans [5] = test: Antifungal activity against Candida albicans ATCC 10231 assessed as inhibition of yeast to hypha morphological transition at 125 ug/ml measured upto 72 hrs by microscopic analysis; format: functional, organism-based; conditions: dose 125.0 µg/ml, time hrs <=72
Candida albicans [6] = test: Fungicidal activity against Candida albicans isolate 6 assessed as fungal killing incubated for 48 hrs followed by plating on SD agar plate; format: functional; conditions: read-out: MFC99.9
Candida albicans [7] = test: Fungicidal activity against Candida albicans isolate 8 assessed as fungal killing incubated for 48 hrs followed by plating on SD agar plate; format: functional; conditions: read-out: MFC99.9
Candida albicans [8] = test: Antifungal activity against Candida albicans isolate 7 assessed as reduction in fungal growth incubated for 48 hrs by broth microdilution method; format: functional
Candida albicans [9] = test: Antifungal activity against Candida albicans isolate 10 assessed as reduction in fungal growth incubated for 48 hrs by broth microdilution method; format: functional
Nakaseomyces glabratus [10] = test: Antifungal activity against Candida glabrata ATCC 2001 assessed as reduction in fungal growth incubated for 48 hrs by broth microdilution method; format: functional
Candida albicans [11] = test: Antifungal activity against Candida albicans isolate 11 assessed as reduction in fungal growth incubated for 48 hrs by broth microdilution method; format: functional
Candida albicans [12] = test: Fungicidal activity against Candida albicans isolate 4 assessed as fungal killing incubated for 48 hrs followed by plating on SD agar plate; format: functional; conditions: read-out: MFC99.9
Pichia kudriavzevii [13] = test: Fungicidal activity against Candida krusei ATCC 34135 assessed as fungal killing incubated for 48 hrs followed by plating on SD agar plate; format: functional; conditions: read-out: MFC99.9
Candida albicans [14] = test: Fungicidal activity against Candida albicans isolate 9 assessed as fungal killing incubated for 48 hrs followed by plating on SD agar plate; format: functional; conditions: read-out: MFC99.9
Candida albicans [15] = test: Antifungal activity against Candida albicans isolate 3 assessed as reduction in fungal growth incubated for 48 hrs by broth microdilution method; format: functional
Candida tropicalis [16] = test: Fungicidal activity against Candida tropicalis ATCC 28707 assessed as fungal killing incubated for 48 hrs followed by plating on SD agar plate; format: functional; conditions: read-out: MFC99.9
Candida albicans [17] = test: Fungicidal activity against Candida albicans ATCC 10231 assessed as fungal killing incubated for 48 hrs followed by plating on SD agar plate; format: functional; conditions: read-out: MFC99.9
Candida albicans [18] = test: Fungicidal activity against Candida albicans isolate 2 assessed as fungal killing incubated for 48 hrs followed by plating on SD agar plate; format: functional; conditions: read-out: MFC99.9
Candida albicans [19] = test: Antifungal activity against Candida albicans ATCC 18804 assessed as reduction in fungal growth incubated for 48 hrs by broth microdilution method; format: functional
Candida albicans [20] = test: Fungicidal activity against Candida albicans ATCC 10231 assessed as reduction in fungal load at 125 ug/ml incubated for 48 hrs followed by inoculation on SD agar plate for 48 hrs by time-kill assay; format: functional, organism-based; conditions: dose 125.0 µg/ml, time 96.0 hrs
Candida albicans [21] = test: Antifungal activity against Candida albicans ATCC 10231 assessed as reduction in fungal growth incubated for 48 hrs by broth microdilution method; format: functional
Candida albicans [22] = test: Antifungal activity against Candida albicans isolate 4 assessed as reduction in fungal growth incubated for 48 hrs by broth microdilution method; format: functional
Candida albicans [23] = test: Antifungal activity against Candida albicans isolate 2 assessed as reduction in fungal growth incubated for 48 hrs by broth microdilution method; format: functional
Candida albicans [24] = test: Antifungal activity against Candida albicans isolate 6 assessed as reduction in fungal growth incubated for 48 hrs by broth microdilution method; format: functional
Candida albicans [25] = test: Antifungal activity against Candida albicans isolate 5 assessed as reduction in fungal growth incubated for 48 hrs by broth microdilution method; format: functional
Candida albicans [26] = test: Fungicidal activity against Candida albicans isolate 7 assessed as fungal killing incubated for 48 hrs followed by plating on SD agar plate; format: functional; conditions: read-out: MFC99.9
Candida albicans [27] = test: Antifungal activity against Candida albicans isolate 12 assessed as reduction in fungal growth incubated for 48 hrs by broth microdilution method; format: functional
Candida albicans [28] = test: Fungicidal activity against Candida albicans isolate 10 assessed as fungal killing incubated for 48 hrs followed by plating on SD agar plate; format: functional; conditions: read-out: MFC99.9
Candida albicans [29] = test: Fungicidal activity against Candida albicans isolate 12 assessed as fungal killing incubated for 48 hrs followed by plating on SD agar plate; format: functional; conditions: read-out: MFC99.9
Candida albicans [30] = test: Fungicidal activity against Candida albicans isolate 11 assessed as fungal killing incubated for 48 hrs followed by plating on SD agar plate; format: functional; conditions: read-out: MFC99.9
Candida albicans [31] = test: Antifungal activity against Candida albicans isolate 13 assessed as reduction in fungal growth incubated for 48 hrs by broth microdilution method; format: functional
Candida albicans [32] = test: Fungicidal activity against Candida albicans isolate 13 assessed as fungal killing incubated for 48 hrs followed by plating on SD agar plate; format: functional; conditions: read-out: MFC99.9
Candida albicans [33] = test: Antifungal activity against Candida albicans isolate 1 assessed as reduction in fungal growth incubated for 48 hrs by broth microdilution method; format: functional
Candida albicans [34] = test: Fungicidal activity against Candida albicans ATCC 18804 assessed as fungal killing incubated for 48 hrs followed by plating on SD agar plate; format: functional; conditions: read-out: MFC99.9
Nakaseomyces glabratus [35] = test: Fungicidal activity against Candida glabrata ATCC 2001 assessed as fungal killing incubated for 48 hrs followed by plating on SD agar plate; format: functional; conditions: read-out: MFC99.9

## CC(=O)N1CCN(c2ccc(OCC3COC(Cn4ccnc4)(c4ccc(Cl)cc4Cl)O3)cc2)CC1 (stereo not given) [KETOCONAZOLE]
Candida tropicalis [1]
  MIC: 31.2 µg/mL (≈ 58.8 µM)
Pichia kudriavzevii [2]
  MIC: 7.8 µg/mL (≈ 14.7 µM)
Candida albicans [3]
  MIC: 31.2 µg/mL (≈ 58.8 µM)
Candida albicans [4]
  MIC: 3.9 µg/mL (≈ 7.34 µM)
Candida albicans [5]
  Activity: Active
Candida albicans [6]
  MFC: 3.9 µg/mL (≈ 7.34 µM)
Candida albicans [7]
  MFC: 7.8 µg/mL (≈ 14.7 µM)
Candida albicans [8]
  MIC: 1.95 µg/mL (≈ 3.67 µM)
Candida albicans [9]
  MIC: 7.8 µg/mL (≈ 14.7 µM)
Nakaseomyces glabratus [10]
  MIC: 125 µg/mL (≈ 235 µM)
Candida albicans [11]
  MIC: 31.2 µg/mL (≈ 58.8 µM)
Candida albicans [12]
  MFC: 125 µg/mL (≈ 235 µM)
Pichia kudriavzevii [13]
  MFC: 7.8 µg/mL (≈ 14.7 µM)
Candida albicans [14]
  MFC: 250 µg/mL (≈ 470 µM)
Candida albicans [15]
  MIC: > 500 µg/mL
Candida tropicalis [16]
  MFC: 62.5 µg/mL (≈ 118 µM)
Candida albicans [17]
  MFC: 125 µg/mL (≈ 235 µM)
Candida albicans [18]
  MFC: > 500 µg/mL
Candida albicans [19]
  MIC: 31.2 µg/mL (≈ 58.8 µM)
Candida albicans [20]
  Activity: inactive
Candida albicans [21]
  MIC: 31.2 µg/mL (≈ 58.8 µM)
Candida albicans [22]
  MIC: 31.2 µg/mL (≈ 58.8 µM)
Candida albicans [23]
  MIC: 62.3 µg/mL (≈ 117 µM)
Candida albicans [24]
  MIC: 0.97 µg/mL (≈ 1.83 µM)
Candida albicans [25]
  MIC: > 500 µg/mL
Candida albicans [26]
  MFC: 7.8 µg/mL (≈ 14.7 µM)
Candida albicans [27]
  MIC: 15.6 µg/mL (≈ 29.4 µM)
Candida albicans [28]
  MFC: 62.5 µg/mL (≈ 118 µM)
Candida albicans [29]
  MFC: 500 µg/mL (≈ 941 µM)
Candida albicans [30]
  MFC: 125 µg/mL (≈ 235 µM)
Candida albicans [31]
  MIC: 15.6 µg/mL (≈ 29.4 µM)
Candida albicans [32]
  MFC: 250 µg/mL (≈ 470 µM)
Candida albicans [33]
  MIC: > 500 µg/mL
Candida albicans [34]
  MFC: 125 µg/mL (≈ 235 µM)
Nakaseomyces glabratus [35]
  MFC: > 500 µg/mL
